The values that follow come from patent US20090221829A1 (priority 2005, published 2009).

Read-outs that look alike come from different tables or passages of the source. Where only a bound is given, the exact number is not on record here.

The test system of one data set is salmonella typhimurium. As to the kind of experiment: Bacterial reverse mutation test (Ames test). Type of data set: cell-based.
A further data set is described as follows: Micronucleus test. It counts as in vivo.
The test system of data set [1] is cultured lung cells derived from chinese hamster. Kind of data set: Chromosome aberration test. Type of data set: cell-based.
Data set [2] has as its system Candida albicans(KCTC 1940), Aspergillus niger (ATCC 9642) and Saccharomyces cerevisiae. Kind of data set: Relative antifungal activity by agar dilution method (vs Miconazole).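 Note: scores 5 to 7 mean a lower fungicidal concentration than Miconazole so higher is more potent.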 Type of data set: cell-based. From the text:
Novel compounds represented by the above chemical formula (I), and the relative activities in accordance with the agar dilution method in Sabouraud dextrose agar media, Czapek agar media and Yeast Extract-Peptone-Dextrose agar media for Candida albicans(KCTC 1940), Aspergillus niger (ATCC 9642) and Saccharomyces cerevisiae are described respectively in following Table 1.
(In general: In agar dilution the substance is mixed into plates at graded concentrations.)

The nature of data set [3]: Oral toxicity test (general symptoms, weight change, lethal case). It counts as in vivo, rats (SD). As to conditions: for LD50: SD, rat, in vivo, 1000 mg/kg, rats, oral, read-out: Acute toxicity LD50; for general symptom / lethal case / weight change: oral, 1,000 mg/kg, suspended in propylene glycol, SD rats. The protocol: Meanwhile, the toxicity test of the compound in table II of the present invention was performed using […]. The compound was suspended in propylene glycol. The resulting suspension was medicated respectively on 6 female rats and 5 male rats (SD) of which age are 5 weeks, via oral after 12 hours starvation. The general symptoms, weight change and lethal case of the above rats were investigated.
In cases of the tests of the compounds (Compound No. 12, 119, 134, 148, 150)(delivery of 1,000 mg/kg), the general symptom and weight change were normal and the lethal case was not observed.

For the next data set, the system named is various kinds of Candida. Kind of data set: MIC (Minimal Inhibitory Concentration) data. It counts as cell-based.
The mark [4] stands for this setting: cultured lung cells derived from chinese hamster.
Where [5] appears, read: agar dilution method, fungicidal concentration relative to control drug Miconazole (=4).
Where [6] appears, read: C. albicans ATCC 11651, unit assumed.
The mark [7] stands for this setting: C. albicans ATCC 28838, unit assumed.
Where [8] appears, read: C. albicans IFO 1385, unit assumed.
The mark [9] stands for this setting: C. albicans OY-003, unit assumed.
The mark [10] stands for this setting: C. albicans OY-019, unit assumed.
Setting [11] is: C. krusei (KCTC7273), unit assumed.
Setting [12] is: antifungal activity relative to Miconazole, agar dilution.

Usually LD50 stands for the dose at which mortality reaches 50%. Consider `CCCCCCCCCCCC1=[N+](Cc2ccc(C(C)(C)C)cc2)CCc2cc(NC)c(OC)cc21`, for which, in the data set with salmonella typhimurium, the “Genetic toxicity AMES test” value is “negative” and the “bacterial reverse mutation test (Ames test) result” value (from here on “bacterial reverse mutation test”) was “negative”. Also, in “Micronucleus test” (male ICR mice), the “Genetic toxicity Nucleus test” value is given as “negative” and the micronucleus test result is listed as “negative”. In data set [1] (setting [4]), the “Genetic toxicity Chromosome abmormality test” value is “negative” and the “chromosome aberration test result” value is “negative”. For the same compound, the “Relative Activity” value in data set [2] (setting [5]) stood at 1. For the same compound, in data set [3] (female), the LD50 was greater than 1500 mg/kg. The median lethal dose (LD50) in data set [3] (male) is greater than 2500 mg/kg. In addition, in data set [3], the general symptom result is “normal”, the lethal case result was “not observed” and the weight change entry is “normal”. For the same compound, the MIC against various kinds of Candida (C. glabrata) is recorded as 3.125. For the same compound, the MIC in the data set with various kinds of Candida (C. glulliermondi) is on record as 3.125.
As for `CCCCCCCCCCCC1=[N+](Cc2ccccc2F)CCc2cc(OC)c(OC)cc21.[Cl-]` [Compound No. 12, 1-n-undecyl-2-(2-fluorophenyl)methyl-3,4-dihydro-6,7-dimethoxyisoquinolinium chloride], in the data set with salmonella typhimurium, the “Genetic toxicity AMES test” value is reported as “negative”. Further, the “bacterial reverse mutation test” value in the data set on salmonella typhimurium was “negative”. The “Genetic toxicity Nucleus test” value in the data set “Micronucleus test” (male ICR mice) is “negative”. Further, in “Micronucleus test” (mouse, in vivo), the micronucleus test result was “negative”. For the same compound, in data set [1], the “Genetic toxicity Chromosome abmormality test” value was “negative”. Moreover, the “chromosome aberration test result” value in data set [1] is “negative”. Further, in data set [2] (setting [5]), the “Relative Activity” value is 2. Moreover, the median lethal dose (LD50) was greater than 1000 mg/kg in data set [3] (female) and greater than 1500 mg/kg in data set [3] (male). Further, in data set [3], the general symptom entry is listed as “normal”. Besides, the lethal case entry in data set [3] is “not observed”. For the same compound, in data set [3], the weight change result is reported as “normal”. Moreover, the MIC against various kinds of Candida (setting [6]) stood at 1.56 µg/mL; in the data set on various kinds of Candida (setting [7]), 1.56 µg/mL; against various kinds of Candida (setting [8]) it was 3.12 µg/mL; in the data set with various kinds of Candida (setting [9]), 1.56 µg/mL; in the data set with various kinds of Candida (setting [10]), 3.12 µg/mL; against various kinds of Candida (C. albicans U.K, unit assumed) it was 1.56 µg/mL. Moreover, the MIC is 1.56 µg/mL against various kinds of Candida (C. glabrata, unit assumed); 1.56 µg/mL in the data set with various kinds of Candida (C. glulliermondi, unit assumed); 6.25 µg/mL against various kinds of Candida (setting [11]); 1.56 µg/mL with various kinds of Candida (C. parapsilosis, unit assumed).
What is called melting point is the temperature of the solid-liquid transition. Compound `CCCCCCCCCCCCCCCC1=[N+](Cc2c(F)cccc2F)CCc2cc(OC)c(OC)cc21.[Cl-]` [Compound No. 60, 1-n-pentadecyl-2-(2,6-difluorophenyl)methyl-3,4-dihydro-6,7-dimethoxyisoquinolinium chloride] displayed a melting point of 104 °C. For the same compound, the “Relative Activity” value in data set [2] (setting [5]) is 1.
Take `COc1cc2c(cc1OC)C(c1ccccc1F)=[N+](Cc1c(F)cccc1F)CC2.[Cl-]` [Compound No. 62, 1-(2-fluorophenyl)-2-(2,6-difluorophenyl)methyl-3,4-dihydro-6,7-dimethoxyisoquinolinium chloride]: the melting point stood at 79 °C. Moreover, the “Relative Activity” value in data set [2] (setting [5]) was 6.
In the same order, the values of `COc1ccc2c(c1)CC[N+](Cc1ccccc1F)=C2C(C)C.[Cl-]` [Compound No. 83, 1-i-propyl-2-(2-fluorophenyl)methyl-3,4-dihydro-6-methoxyisoquinolinium chloride] are 102 °C and 6.
In the same order, the values of `CC1=[N+](Cc2ccc(F)c(F)c2)CCc2cc3c(cc21)OCO3.[Cl-]` [Compound No. 111, 1-methyl-2-(3,4-difluorophenyl)methyl-3,4-dihydro-6,7-methylenedioxyisoquinolinium chloride] are 88 °C and 6.
`CCCCCCC1=[N+](Cc2ccc(C(C)(C)C)cc2)CCc2cc(OC)c(OC)cc21.[Cl-]` [Compound No. 126, 1-hexyl-2-(4-t-butylphenyl)methyl-3,4-dihydro-6,7-dimethoxy isoquinolinium chloride] came in with a melting point of 34 °C. Further, in data set [2] (setting [5]), the “Relative Activity” value is on record as 4.
In turn, `CCCCCCCCCCCC1=[N+](Cc2ccc(C(C)(C)C)cc2)CCc2cc(OC)c(OC)cc21.[Cl-]` [Compound No. 127, 1-undecyl-2-(4-t-butylphenyl)methyl-3,4-dihydro-6,7-dimethoxy isoquinolinium chloride] registered a melting point of 85 °C. The “Relative Activity” value in data set [2] (setting [5]) was 1. For the same compound, in the data set with various kinds of Candida (setting [6]), the MIC came to 0.78 µg/mL. Further, the MIC against various kinds of Candida (setting [7]) was determined as 1.56 µg/mL. Further, in the data set with various kinds of Candida (setting [8]), the MIC is 0.78 µg/mL. The compound also had an MIC in the data set with various kinds of Candida (setting [9]) of 1.56 µg/mL. For the same compound, the MIC in the data set with various kinds of Candida (setting [10]) was found to be 0.78 µg/mL. The same compound showed an MIC against various kinds of Candida (C. albicans U.K, unit assumed) of 1.56 µg/mL. Further, in the data set on various kinds of Candida (C. glabrata, unit assumed), the MIC amounted to 1.56 µg/mL. The same compound displayed an MIC against various kinds of Candida (C. glulliermondi, unit assumed) of 1.56 µg/mL. This compound displayed an MIC against various kinds of Candida (setting [11]) of 1.56 µg/mL. This compound registered an MIC in the data set on various kinds of Candida (C. parapsilosis, unit assumed) of 1.56 µg/mL.
The compound `CCCCCCCCCCCCCCCC1=[N+](Cc2ccc(C(C)(C)C)cc2)CCc2cc(OC)c(OC)cc21.[Cl-]` [Compound No. 128, 1-pentadecyl-2-(4-t-butylphenyl)methyl-3,4-dihydro-6,7-dimethoxy isoquinolinium chloride] registered a melting point of 166 °C. Moreover, the “Relative Activity” value in data set [2] (setting [5]) came out at 1.
Turning to `CCCCCCCCOc1c(C[N+]2=C(CCc3ccc(C(C)(C)C)cc3)c3cc(OC)c(OC)cc3CC2)cccc1OC` [Compound No. 134, 1-(2-(4-t-butylphenyl))ethyl-2-(2-octyloxy-3-methoxyphenyl)methyl-3,4-dihydro-6,7-dimethoxy isoquinolinium chloride], the “Genetic toxicity AMES test” value with salmonella typhimurium was “negative”. Moreover, the “bacterial reverse mutation test” value with salmonella typhimurium was “negative”. The “Genetic toxicity Nucleus test” value in the data set “Micronucleus test” (male ICR mice) is reported as “negative”. In addition, the micronucleus test result in the data set “Micronucleus test” (mouse, in vivo) is “negative”. Besides, the “Genetic toxicity Chromosome abmormality test” value in data set [1] is listed as “negative”. The “chromosome aberration test result” value in data set [1] is “negative”. The “Relative Activity” value in data set [2] (setting [5]) is reported as 1. Also, the 50% lethal dose (LD50) in data set [3] (female) is greater than 1000 mg/kg; in data set [3] (male) it was greater than 1200 mg/kg. Moreover, in data set [3], the general symptom result is “normal”. Besides, the lethal case entry in data set [3] is listed as “not observed”. The weight change entry in data set [3] was “normal”. For the same compound, the MIC against various kinds of Candida (setting [6]) turned out to be 3.12 µg/mL; against various kinds of Candida (setting [7]), 1.56 µg/mL; against various kinds of Candida (setting [8]), 3.12 µg/mL; with various kinds of Candida (setting [9]) it was 1.56 µg/mL; against various kinds of Candida (setting [10]) it was 1.56 µg/mL; in the data set on various kinds of Candida (C. albicans U.K, unit assumed), 1.56 µg/mL. The MIC in the data set with various kinds of Candida (C. glabrata, unit assumed) was 3.12 µg/mL; in the data set on various kinds of Candida (C. glulliermondi, unit assumed), 1.56 µg/mL; in the data set with various kinds of Candida (setting [11]), 3.12 µg/mL; in the data set on various kinds of Candida (C. parapsilosis, unit assumed), 6.25 µg/mL.
For the compound `COc1cc2c(cc1OC)C(C)=[N+](Cc1cccc(OC)c1OCc1ccc(C(C)(C)C)cc1)CC2.[Cl-]` [Compound No. 138, 1-methyl-2-(2-(4-t-butylbenzyloxy)-3-methoxyphenyl)methyl-3,4-dihydro-6,7-dimethoxy isoquinolinium chloride], the melting point came to 105 °C. In addition, the “Relative Activity” value in data set [2] (setting [5]) turned out to be 6.
Compound `CCCc1c2cc(OC)c(OC)cc2cc[n+]1Cc1c(F)cccc1Cl.[Cl-]` [Compound No. 139, 1-propyl-2-(2-chloro-6-fluorophenyl)methyl-6,7-dimethoxy-isoquinolinium chloride] displayed a melting point of 78 °C. Also, the “Relative Activity” value in data set [2] (setting [12]) amounted to 6.
The like results for `COc1cc2cc[n+](Cc3c(F)cccc3Cl)c(C)c2cc1OC.[Cl-]` [Compound No. 140, 1-methyl-2-(2-chloro-6-fluorophenyl)methyl-6,7-dimethoxyisoquinolinium chloride] were, in that order, 96 °C and 6.
For `COc1cc2cc[n+](Cc3ccc(C(C)(C)C)cc3)c(C)c2cc1OC.[Cl-]` [Compound No. 143, 1-methyl-2-(4-t-butylphenyl)methyl-6,7-dimethoxyisoquinolinium chloride], the melting point worked out at 350 °C. Besides, the “Relative Activity” value in data set [2] (setting [12]) is 6.
In the case of `CCCc1c2cc(OC)c(OC)cc2cc[n+]1Cc1ccc(C(C)(C)C)cc1.[Cl-]` [Compound No. 144, 1-propyl-2-(4-t-butylphenyl)methyl-6,7-dimethoxyisoquinolinium chloride], the melting point is 79 °C. In data set [2] (setting [12]), the “Relative Activity” value was 6.
Turning to `CCCCCCc1c2cc(OC)c(OC)cc2cc[n+]1Cc1ccc(C(C)(C)C)cc1.[Cl-]` [Compound No. 145, 1-hexyl-2-(4-t-butylphenyl)methyl-6,7-dimethoxyisoquinolinium chloride], the melting point stood at 105 °C. For the same compound, the “Relative Activity” value in data set [2] (setting [12]) was determined as 4.
On to `CCCCCCCCCCCCCCCc1c2cc(OC)c(OC)cc2cc[n+]1Cc1ccc(C(C)(C)C)cc1.[Cl-]` [Compound No. 147, 1-pentadecyl-2-(4-t-butylphenyl)methyl-6,7-dimethoxyisoquinolinium chloride], for which the melting point stood at 120 °C. In data set [2] (setting [12]), the “Relative Activity” value is on record as 1.
